{"source": "the supplement of paper PMC11208160"}
{"assay": "recombinant UMI read abundance after kanamycin selection (control-corrected) (log10(CPM+1)); higher = more efficient recombination; extreme values may be limits of the assay; sequences stand for … in AGTGCAGAGAAAATCGGCCAGTTTTCTCTGCCTGCAGTCCGCATGCCGTGGGACCCCTTGGGTTCTAACCTGTTGCCTAGATTTATGCAGCGGACTGCCTTTCTCCCAAAGTGATAAACCGG…AGGTTGGTTTCACT; site = the 11-nt donor", "method_in_brief": "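For the IS621 bridge recombinase, a pooled Escherichia coli screen tested donor and donor-binding-loop pairs. Cells received the pair library together with a target plasmid encoding a fixed target and T7-inducible recombinase, then went onto IPTG (0.07 mM) plus kanamycin or unselected plates in duplicate. After PCR across the donor–target junction and sequencing, recombinant UMI counts were normalized to CPM, averaged, and scaled by control-derived factors. Each value is given as log10(CPM+1).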"}
{"sequence": "ATGATAACATGGACCGGTTTTCCCGGTAATCCGTATTTGCA (site ATGATAACTTG)", "recombinant UMI read abundance (log10)": 2.08}
{"sequence": "ATGCAAGCATGGACCGGTTTTCCCGGTAATCCGTATTTGAG (site ATACAAGCTCT)", "recombinant UMI read abundance (log10)": 2.24}
{"sequence": "ATGCAAGCATGGACCGGTTTTCCCGGTAATCCGTATTTGAG (site ATCCAAGCTCT)", "recombinant UMI read abundance (log10)": 0.701}
{"sequence": "ATGCAAGCATGGACCGGTTTTCCCGGTAATCCGTATTTGAG (site ATGCAAGCTCT)", "recombinant UMI read abundance (log10)": 2.26}
{"sequence": "ATGCAAGCATGGACCGGTTTTCCCGGTAATCCGTATTTGAG (site ATTCAAGCTCT)", "recombinant UMI read abundance (log10)": 0.614}
{"sequence": "ATGCAAGCATGGACCGGTTTTCCCGGTAATCCGTATTTGGA (site ATGCAAGCTTC)", "recombinant UMI read abundance (log10)": 1.86}
{"sequence": "ATGCAGACATGGACCGGTTTTCCCGGTAATCCGTATTTGCA (site AGGAAGACTTG)", "recombinant UMI read abundance (log10)": 0}
{"sequence": "ATGCAGACATGGACCGGTTTTCCCGGTAATCCGTATTTGCA (site ATGCAGACTTG)", "recombinant UMI read abundance (log10)": 2.15}
{"sequence": "ATGCATGCATGGACCGGTTTTCCCGGTAATCCGTATTTGGT (site ATGCATGCTAC)", "recombinant UMI read abundance (log10)": 1.67}
{"sequence": "ATGCATGCATGGACCGGTTTTCCCGGTAATCCGTATTTGGT (site CTGCATGCTAC)", "recombinant UMI read abundance (log10)": 0.628}
{"sequence": "ATGCATGCATGGACCGGTTTTCCCGGTAATCCGTATTTGGT (site GTGCATGCTAC)", "recombinant UMI read abundance (log10)": 0.323}
{"sequence": "ATGCATGCATGGACCGGTTTTCCCGGTAATCCGTATTTGGT (site TTGCATGCTAC)", "recombinant UMI read abundance (log10)": 0.601}
{"sequence": "ATGCTCGCATGGACCGGTTTTCCCGGTAATCCGTATTTGAA (site ATGCTCGCTTT)", "recombinant UMI read abundance (log10)": 1.82}
{"sequence": "ATGGCACCATGGACCGGTTTTCCCGGTAATCCGTATTTGGG (site ATGGCACCTCC)", "recombinant UMI read abundance (log10)": 0.00577}
{"sequence": "ATGGGAGCATGGACCGGTTTTCCCGGTAATCCGTATTTGTA (site ATGGGAGCTTA)", "recombinant UMI read abundance (log10)": 2.2}
{"sequence": "ATGGGCCCATGGACCGGTTTTCCCGGTAATCCGTATTTGAC (site ATGGGCCCTGT)", "recombinant UMI read abundance (log10)": 0.523}
{"sequence": "ATGGGTACATGGACCGGTTTTCCCGGTAATCCGTATTTGGC (site ATGGGTACTGC)", "recombinant UMI read abundance (log10)": 2.89}
{"sequence": "ATGGTAGCATGGACCGGTTTTCCCGGTAATCCGTATTTGGA (site ATGGTAGCTTC)", "recombinant UMI read abundance (log10)": 1.72}
{"sequence": "ATGGTATCATGGACCGGTTTTCCCGGTAATCCGTATTTGAC (site ATGGTATCTGT)", "recombinant UMI read abundance (log10)": 3.67}
{"sequence": "ATGGTATCATGGACCGGTTTTCCCGGTAATCCGTATTTGAC (site CTAGTATCTGT)", "recombinant UMI read abundance (log10)": 2.1}
{"sequence": "ATGGTATCATGGACCGGTTTTCCCGGTAATCCGTATTTGCA (site ACAGTATCTTG)", "recombinant UMI read abundance (log10)": 1.69}
{"sequence": "ATGGTATCATGGACCGGTTTTCCCGGTAATCCGTATTTGCA (site ATGGTATCTTG)", "recombinant UMI read abundance (log10)": 3.07}
{"sequence": "ATGGTTTCATGGACCGGTTTTCCCGGTAATCCGTATTTGTA (site ATGGTTTCTTA)", "recombinant UMI read abundance (log10)": 2.68}
{"sequence": "ATGTACGCATGGACCGGTTTTCCCGGTAATCCGTATTTGGC (site ATGTAAGCTGC)", "recombinant UMI read abundance (log10)": 1.81}
{"sequence": "ATGTACGCATGGACCGGTTTTCCCGGTAATCCGTATTTGGC (site ATGTACGCTGC)", "recombinant UMI read abundance (log10)": 3.06}
{"sequence": "ATGTACGCATGGACCGGTTTTCCCGGTAATCCGTATTTGGC (site ATGTAGGCTGC)", "recombinant UMI read abundance (log10)": 0}
{"sequence": "ATGTACGCATGGACCGGTTTTCCCGGTAATCCGTATTTGGC (site ATGTATGCTGC)", "recombinant UMI read abundance (log10)": 0}
{"sequence": "ATGTACTCATGGACCGGTTTTCCCGGTAATCCGTATTTGCA (site ATGTACTCTTG)", "recombinant UMI read abundance (log10)": 2.96}
{"sequence": "ATGTAGCCATGGACCGGTTTTCCCGGTAATCCGTATTTGGC (site ATGTAGACTGC)", "recombinant UMI read abundance (log10)": 0}
